The values below come from patent publication US4849424A, “Pyrimidine derivatives” (Nissin Shokuhin Kabushiki Kaisha, priority 1986, dated 1989).

Data set [1] has as its system gastric lesions. Description: HCl-ethanol-induced gastric lesions in rats (cytoprotective effect). It is filed as in vivo, Male Sprague-Dawley rats. The settings on record: Rattus norvegicus, po; for inhibition in vivo at 10 mg/kg: 10 mg/kg p.o. in 1% CMC, 30 minutes before 150 mM HCl-60% ethanol, 3 rats per group, lesions measured 1 hour later, read-out: Inhibition (inhibitory rate of ulcer length vs control); for ED50: 30 minutes before HCl-ethanol. The protocol:
Male Sprague-Dawley rats (body weight: 220-240 g, 7 weeks) were deprived of food but allowed free access to water for 24 hours prior to the experiments. Each control and experimental group consisted of 3 rats. One hundred and fifty mM HCl-60% ethanol (v/v) was given p.o. in a volume of 1 ml/rat. The animals were sacrificed 1 hour later, and the stomach was removed and inflated by injecting 10 ml of 2% formalin to fix the inner and outer layers of the gastric walls. Subsequently, the stomach was incised along the greater curvature and washed gently with ice-cold saline.
Gastric lesions were identified in the grandular portion. The length of lesions was measured in millimeters (mm) under a dissecting microscope with a square grid (×10), and lesion severity was expressed as the total length of lesions per stomach.
Test compound (I) (10 mg/kg), suspended in 1% carboxymethyl cellulose (CMC), or 1% carboxymethyl cellulose for the control was orally administered 30 minutes before HCl-ethanol administration. The ulcer length of the treated group and the control group were compared and the inhibitory rates were calculated.

Data set [2] deals with ulcer. Kind of data set: Restraint-immersion stress ulcer in rats (anti-stress ulcer activity). It is filed as in vivo, Male Sprague-Dawley rats. The settings on record: 32 mg/kg p.o. in 0.1% MC, 5 minutes before restraint-immersion for 7 hours at 22° C. The protocol:
Male Sprague-Dawley rats (body weight: 230-280 g) were placed under restraint in a stress cage after fasting for 15 hours, and immersed vertically in the water bath kept at 22° C. to the level of the xiphoid of the animal. After restraint-immersion for 7 hours the animals were killed, and the stomach from each animal was fixed with formalin.
Each stomach was opened by cutting along the greater curvature, and ulcer area (mm^2) was measured with a stereoscopic microscope. Ulcer indices of the treated group and the control group were compared, and inhibitory rates were calculated. The tested compound, either 4,6-bis(1-pyrazolyl) pyrimidine (32 mg/kg) suspended in 0.1% methylcellulose (MC) or 0.1% methylcellulose (MC) alone, was orally administered 5 minutes before the restraint-immersion.

The nature of data set [3]: Oral acute toxicity (LD50) in rats. The settings on record: rat, in vivo, 0.3% CMC-Na suspension, 72 hours observation, 10 rats per group, Probit method. The protocol: A 0.3% CMC-Na suspension of a test compound was orally administered to groups of Slc:Wistar/KY rats (male: 90-120 g), each group consisting of 10 rats. […] LD50 values were calculated by the Probit method to be as follows: […]

Regarding `COc1cc(C)nc(-n2cccn2)n1` [Example 6, 4-Methoxy-6-methyl-2-(1-pyrazolyl)pyrimidine], the inhibition in vivo at 10 mg/kg in data set [1] stood at 87.2%.
Same read-out and setting: the figure for `CCOc1cc(C)nc(-n2cccn2)n1` [Example 11, 4-Ethoxy-6-methyl-2-(1-pyrazolyl)pyrimidine] is 78.3%.
On the same count and under the same terms, the figure for `COc1nc(C)cc(-n2cncn2)n1` [Example 9, 2-Methoxy-6-methyl-4-(1,2,4-triazol-1-yl)pyrimidine] is 75.7%; for `COc1cc(C)nc(-n2ccnc2)n1` [Example 7, 2-(1-Imidazolyl)-4-methoxy-6-methylpyrimidine] it is 82.6%; for `COc1cc(-n2cccn2)ncn1` [Example 15, 6-Methoxy-4-(1-pyrazolyl)pyrimidine] it is 95.6%.
On the same count and under the same terms, the figure for `c1cnn(-c2cc(N3CCCCC3)ncn2)c1` [Example 19, 6-Piperidino-4-(1-pyrazolyl)pyrimidine] is 79.2%; for `CC(C)Oc1cc(-n2cccn2)ncn1` [Example 17, 6-Isopropoxy-4-(1-pyrazolyl)pyrimidine] it is 79.8%.
Regarding `c1cnn(-c2cc(-n3cccn3)ncn2)c1` [Example 1, 4,6-Bis(1-pyrazolyl)pyrimidine], in data set [1], the ED50 (usually the midpoint of the dose-response relation) was 0.72 mg/kg and the inhibition in vivo at 10 mg/kg came to 95.6%. Also, the “Inhibition (inhibitory rate of ulcer index vs control)” value in data set [2] is listed as 73.6%. Besides, the LD50 (commonly the dose at which mortality reaches 50%) at 72 h in data set [3] was above 3000 mg/kg.
Regarding `COc1cc(-n2ccnc2)ncn1` [Example 16, 4-(1-Imidazolyl)-6-methoxypyrimidine], in data set [1], the ED50 was found to be 5.6 mg/kg and the inhibition in vivo at 10 mg/kg is 91.3%. For the same compound, the LD50 at 72 h in data set [3] was 400 mg/kg.
As for `c1cn(-c2ccnc(-n3ccnc3)n2)cn1` [Example 4, 2,4-Bis(1-imidazolyl)pyrimidine], the inhibition in vivo at 10 mg/kg in data set [1] is 78.2%.
The same measure, in the same setting: the figure for `CCOc1cc(C)nc(-n2ccnc2)n1` [Example 10, 4-Ethoxy-2-(1-imidazolyl)-6-methylpyrimidine] is 80.7%.
